# Measurements from patent US8173771B2, “Humanin receptor or humanin-like polypeptide receptor” (Keio Univeristy, priority 2005, dated 2012).
# Peptide text beside a SMILES is read from it.
# Test system: HN receptor (HNR; CNTF-R/WSX-1/gp130) on F11 cells
# Assay: Immunofluorescence-based binding assay (2): biotin-HN / biotin-HNG binding to F11 cells
# Design: species or system mouse
# Method: A) F11 cells were seeded on 96-well plates coated with poly-L-lysine (7×10^3 cells/well). An indicated amount of biotin-HN or biotin-HNG was added to the cells with or without 10 μM of unlabelled HNG or HNA, followed by a binding assay based on immunofluorescence reaction (2) (left panels). On the other hand, F11 cells were transfected with 0.5 μg of pcDNA3.1/GS-human CNTF-R, pEF1/MycHis-human WSX-1, and 1.0 μg of pCAG-human gp130. At 24 hrs after the transfection, the cells were re-seeded on 96-well plates coated with poly-L-lysine (7×10^3 cells/well). After 36 hrs the re-seeding, an indicated amount of biotin-HN or biotin-HNG was added to the cells with or without 10 μM of unlabeled HNG or HNA, followed by a binding assay based on immunofluorescence reaction (2) (right panels).
# B) F11 cells were transfected with 0.5 μg of pRNA-U1.6/Shuttle vector, pRNA-U6.1/Shuttle-WSX-1 siRNA, pRNA-U6.1/Shuttle-CNTF-R siRNA, both pRNA-U6.1/Shuttle-WSX-1 siRNA and pRNA-U6.1/Shuttle-CNTF-R siRNA (0.5 μg each), pRNA-U6.1/Shuttle-FPR2 siRNA or pRNA-U6.1/Shuttle-LIFR siRNA. The total amount of vectors was adjusted to be 1.0 μg by including a backbone vector. At 24 hrs after the transfection, an indicated amount of biotin-HNG was added with or without unlabeled HNG, followed by a binding assay based on immunofluorescence reaction (2) at 72 hrs after the transfection.
# E) F11 cells on 6-well plate (7×10^4 cells/well) were transfected with 1.0 μg of pRNA-U6.1/Shuttle vector, pRNA-U6.1/Shuttle-Bax siRNA, or both pRNA-U6.1/Shuttle-WSX-1 siRNA and pRNA-U6.1/Shuttle-CNTF-R siRNA (0.5 μg each). At 72 hrs after the transfection, the cells were added with an indicated amount of biotin-HN with or without unlabeled HN or HNA (100 μM) and subjected to an HN-binding assay based on immunofluorescence.
# F11 cells (7×10^4/well in 6-well plates) were replated into 96-well plates (7×10^3 cells/well) at 24 hrs after transfection with indicated amounts of the plasmids encoding mycHis-WSX or V5-CNTF-R, and with PCAG-human gp130 if required. At 36 hrs after transfection, the cells were added with biotin-labeled HN or HNG of indicated concentrations in the presence or the absence of HNG (S14G-HN) or HNA (C8A-HN) of indicated concentrations (Hashimoto et al., 2001 a). After 6 hrs incubation, they were fixed with 4% paraformaldehyde in PBS for 30 min. After washing with PBS, cells were stained with FITC-conjugated avidin (Molecularprobe, Eugene, Oreg., USA). Immunofluorescence intensity was measured (excitation=485 nm, emission=535 nm) with a spectrofluorometer (Wallac1420 ARVOsx Multi Label Counter). Immunohistochemical analysis was done with a laser-scanning, confocal microscope LSM (Carl Zeiss, Germany).
structure (smiles),measurement,setting,value
"CC[C@H](C)[C@H](NC(=O)[C@H](CCC(=O)O)NC(=O)CNC(=O)[C@@H](NC(=O)[C@H](CC(C)C)NC(=O)[C@H](CC(C)C)NC(=O)[C@H](CC(C)C)NC(=O)[C@H](CC(C)C)NC(=O)[C@H](CS)NC(=O)[C@H](CO)NC(=O)[C@H](Cc1ccccc1)NC(=O)CNC(=O)[C@H](CCCNC(=N)N)NC(=O)[C@@H]1CCCN1C(=O)[C@H](C)NC(=O)[C@@H](N)CCSC)[C@@H](C)O)C(=O)N[C@@H](CC(=O)O)C(=O)N[C@@H](CC(C)C)C(=O)N1CCC[C@H]1C(=O)N[C@H](C(=O)N[C@@H](CCCCN)C(=O)N[C@@H](CCCNC(=N)N)C(=O)N[C@@H](CCCNC(=N)N)C(=O)N[C@@H](C)C(=O)O)C(C)C [HNG, S14 G-Humanin] (H-MAPRGFSCLLLLTGEIDLPVKRRA-OH; N-terminus and C-terminus assumed)",binding to F11 cells,expression of endogenous CNTF-R and WSX-1 simultaneously decreased by siRNA,almost completely inhibited
same,binding to F11 cells,expression of endogenous CNTF-R or WSX-1 decreased by siRNA,significantly decreased
